Here are results for one compound from publication PMC10687071 (The Journal of Biological Chemistry, 2023).

The target of experiment [1] is T1, Y71E mutant EAG1 channels (Mus musculus, UniProt Q60603, Y71E).
T1 construct: expressed in transfected cells; host or cells: Xenopus laevis oocytes injected with cRNA
T1 sequence (Q60603 1-989 Y71E): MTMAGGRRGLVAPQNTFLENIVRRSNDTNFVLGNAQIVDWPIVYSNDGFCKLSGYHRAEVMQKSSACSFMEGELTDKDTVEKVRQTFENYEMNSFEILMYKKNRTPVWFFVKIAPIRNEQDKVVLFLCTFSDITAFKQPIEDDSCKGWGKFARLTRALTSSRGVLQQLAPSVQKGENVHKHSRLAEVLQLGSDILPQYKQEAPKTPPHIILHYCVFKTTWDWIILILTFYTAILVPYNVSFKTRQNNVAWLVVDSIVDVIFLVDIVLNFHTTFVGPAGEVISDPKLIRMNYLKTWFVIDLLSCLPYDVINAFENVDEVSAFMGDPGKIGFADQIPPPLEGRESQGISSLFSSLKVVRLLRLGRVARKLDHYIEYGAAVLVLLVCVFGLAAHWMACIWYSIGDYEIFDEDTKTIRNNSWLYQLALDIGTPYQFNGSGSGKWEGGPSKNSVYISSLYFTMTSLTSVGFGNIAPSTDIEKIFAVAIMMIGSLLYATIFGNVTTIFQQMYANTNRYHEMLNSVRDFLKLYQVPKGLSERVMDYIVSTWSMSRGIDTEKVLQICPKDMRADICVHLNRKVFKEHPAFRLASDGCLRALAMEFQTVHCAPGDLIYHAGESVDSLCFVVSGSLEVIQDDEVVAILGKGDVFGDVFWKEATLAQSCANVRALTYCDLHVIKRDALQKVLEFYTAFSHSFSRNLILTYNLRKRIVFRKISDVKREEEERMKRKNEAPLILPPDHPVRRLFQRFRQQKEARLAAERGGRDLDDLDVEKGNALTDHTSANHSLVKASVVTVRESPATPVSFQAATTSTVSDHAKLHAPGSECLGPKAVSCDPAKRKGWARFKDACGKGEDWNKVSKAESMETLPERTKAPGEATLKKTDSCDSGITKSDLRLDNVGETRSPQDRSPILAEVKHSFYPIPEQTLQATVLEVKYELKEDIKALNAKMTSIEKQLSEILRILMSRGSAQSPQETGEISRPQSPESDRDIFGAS
As to the kind of experiment: TEVC recording, imipramine inhibition, Y71E mutant. Type of experiment: cell-based. As to conditions: Y71E mutant EAG1 channel, +50 mV. The source says:
(§1) The cDNA encoding wild-type (WT) mouse EAG1 channels in pGH19 vector was kindly provided by G. Robertson (University of Wisconsin-Madison, Madison, WI). The mutant ΔPAS EAG1 channel in pGH19 with the deletion of the PAS domain residues 2 to 130 was generated by Bio Basic Inc and verified by DNA sequencing (Genewiz). Mutant EAG1 channels with single amino acid substitutions were generated by Genewiz and verified by DNA sequencing. cRNA was transcribed using the T7 mMessage mMachine kit (Thermo Fisher Scientific). Defolliculated Xenopus laevis oocytes were purchased from Ecocyte Bioscience or Xenopus1 and injected with the cRNA using a Nanoinject II oocyte injector (Drummond).
(§2) For EAG1 current recordings, oocytes were placed into a handmade chamber containing a bath solution for the current recording. The currents were recorded using a TEVC technique with OC-725C amplifier (Warner Instruments) and pClamp11 software (Molecular Devices). The signals were digitized using Digidata 1550 (Molecular Devices). Patch pipettes were pulled from borosilicate glass and had resistances of 0.7 to 1.5 MΩ. The recording (bath) solution contained 96 mM NaCl, 4 mM KCl, 0.1 mM CaCl2, 1.8 mM MgCl2, and 5 mM HEPES, pH 7.5. The pipette solution contained 3 M KCl. […]

For experiment [2], the target named is T2, V80G mutant EAG1 channels (Mus musculus, UniProt Q60603, V80G).
T2 construct: expressed in transfected cells; host or cells: Xenopus laevis oocytes injected with cRNA
T2 sequence (Q60603 1-989 V80G): T1 sequence (Q60603 1-989 Y71E) with E71Y, V80G
Briefly: TEVC recording, imipramine inhibition, V80G mutant. The format is cell-based. The following applies: V80G mutant EAG1 channel, +50 mV.
From the text: as §1, §2

Where a chain is given by its changes, count along the chain named.

As for `CN(C)CCCN1c2ccccc2CCc2ccccc21` [imipramine], the IC50 stood at 28.5 ± 1.4 µM in experiment [1] and 57.1 ± 3.1 µM in experiment [2].
